Measurements reported in patent publication US20090233999A1, “COMPOSITIONS AND THERAPEUTIC METHODS INVOLVING ISOFLAVONES AND ANALOGUES THEREOF” (NOVOGEN RESEARCH PTY LTD, priority 1999, published 2009).

How the values were obtained:
5-LO (LTB4 synthesis) = experiment: Synthesis of LTB4 and metabolites by neutrophils (lipoxygenase); assay type: cell-based; settings: Neutrophil; calcium ionophore-stimulated human neutrophils
Experimental: The pathway for LTB4 synthesis involves initial release of AA from phospholipids by a Ca-dependent PLA2. The free AA is then oxygenated at by 5-LO (requiring enzyme activation by FLAP) to generate an epoxide intermediate (LTA4). LTA4 is then converted to LTB4 by LTA4 hydrolase. LTB4 is metabolised (and deactivated) by a cytochrome P-(CYP) 450 […] to produce 20-hydroxy and 20-carboxy metabolites. These metabolites are also measured in the HPLC assay.
Neutrophils were isolated from citrated human venous blood to >90% purity by centrifugation through Ficoll, dextran sedimentation and lysis of erythrocytes. Cells were washed in HEPES buffered Hanks solution (HBHS) and then suspended at 4.5 million cells/mL in HBHS containing 0.1% bovine serum albumin (HBHS+BSA).
Experiments had been carried out previously to optimise the stimulation of neutrophils by calcium ionophore. At 37° C., cells were incubated with the test compound in 10 μL DMSO for 5 min before addition of 100 μL of 25 ng/μL calcium ionophore (free acid form, Sigma) with 0.5% DMSO in HBHS+BSA. The cells were incubated for 10 min then pelleted by centrifugation at 4° C. for 5 min and the cell free supernatant used to quantitate the levels of LTB4 and its metabolites.
To each 900 μL aliquot of the supernatant, 25 μL of prostaglandin B2 (PGB2) 2.5 ng/μL in ethanol was added as internal standard. The solution was acidified to pH≦3 with 2M formic acid and the mixture extracted with 2 mL ethyl acetate and vigorous vortexing. The organic layer was collected and dried under nitrogen in a glass vial before reconstituted in 50 μL of the reconstitution solution (water:methanol:acetonitrile at 2:1:1).
Analysis was carried out using an HPLC system with a 125-4 LiChrospher®100 RP-18 (5 μm) column (Agilent Technologies) and a gradient system adapted from a published method to separate LTB4, its oxidation products 20-hydroxy LTB4 (20-OH-LTB4) and 20-carboxy LTB4 (20-COOH-LTB4), as well as PGB2. At 1 ml/min flow rate, a combination of three different mobile phase solutions was used:
A (water:methanol:acetonitrile:trifluoroacetic acid at 80:40:40:0.1, pH=3 with Et3N), B (methanol:acetonitrile at 1:1), and C (methanol).
UV absorbance was monitored at 270 nm, and LTB4 and its metabolites were quantitated by comparison of peak areas with that of internal standard and a standard curve prepared earlier.

TNFα = experiment: LPS-induced TNFα synthesis in human monocytes; assay type: cell-based; settings: 100 μM
Experimental: Test compounds (in DMSO) at 100, 10, and 1 μmol/ were incubated with monocytes at 37° C. for 30 min after which LPS was added (200 ng/ml) and cells were incubated in triplicate for 18 h at 37° C. in 5% CO2. […], supernatants were removed and TNFα measured by ELISA previously described.

A7r5 = experiment: Proliferation of rat aortic smooth muscle cell line A7r5; assay type: cell-based; settings: A7R5, 72 h, three days, read-out: VSMC proliferation - IC50 (μM), A7r5
Experimental: Human umbilical vein smooth muscle cells (HUVSMC), tissue explants from a neonate (HRI— passage 2), were seeded into 96 well plates at 1×10^3 cells per well, and allowed to attach for 24 hours. They were then washed twice and incubated in medium without FBS for 24-48 hours to serum-starve them. Test compounds were prepared in medium without FBS and added to the plates and incubated for one hour. Medium with FBS was added to give a final concentration of 10% and the plates incubated for 5 days until the controls were just confluent. Final analogue concentration was therefore either a series from 150 μM to 1.2 μM, or single concentrations of 10 μM. The difference in absorbance between treated cells and untreated cells was calculated using the formula, test/control*100, to obtain the percentage change caused by the test compound. As well, an IC50 for each compound was calculated.
The effect of test compounds a rat aortic smooth muscle cell line (A7r5) and another cell line from the media of rat aorta (A10) was examined. The methodology was the same as for HUVSMC, except that the cells were treated with compound for three days.

VCAM-1 = experiment: TNFα-induced VCAM expression on HAECs (ELISA); assay type: cell-based, human; settings: 10 μM
Experimental: Inhibition of TNFα-stimulated endothelial cell activation by compounds was assessed by measuring surface expression of cell adhesion molecules with an ELISA. Human arterial endothelial cells (HAECs) in growth medium (Cell Applications Inc.) were seeded into 96-well plates at a density of 10,000 cells per well. Plates were incubated overnight at 37° C. in a humidified incubator to allow for cells to become confluent. On the morning of the experiment, TNFα (10 μl, 2 ng/ml) was added to each well, which contained 100 μl of medium. Compounds were diluted in DMSO-containing medium (2.5% DMSO) to give a compound concentration of 100 and 300 μM. Compounds were added to wells so that final concentrations were 10 and 30 μM. DMSO-containing medium alone was added to zero concentration control wells. All samples were measured in quadruplicate (4 wells per treatment).
After incubation with compound for 4 hours, medium was removed and cells were probed with either non-specific IgG or specific mouse antibodies against VCAM, ICAM or E-selectin (BD Biosciences—0.1 μg in 100 μL buffered saline with 10% heat-inactivated human serum). Adhesion molecule expression was detected by addition of sheep anti-mouse antibody/horseradish peroxidase conjugate. Plates were allowed to stand for 30 minutes—monolayers were then washed, and sheep anti-mouse antibody/horseradish peroxidase conjugate (1:500 in 100 μL HBSS with 10% heat-inactivated human serum and 0.05% Tween 20) was added and left for 30 minutes. After further washing, 150 μL ABTS substrate (Kirkegaard and Perry Laboratories) was added to each well and allowed to develop for 15 minutes. Optical density was measured at 405 nm with an ELISA reader (Titertek Multiscan, Flow Laboratories).

IL-6 = IL-6 production by murine splenocytes; assay type: cell-based, mouse; settings: 10 μM; Con A
Experimental: Male Skh-1 (hairless) mice, approximately six weeks old were killed by cervical dislocation. Single cell suspensions were made from the spleen and erythrocytes were lysed in buffer (0.14M NH4Cl, 17 mM Tris, pH 7.2). The remaining splenocytes were cultured in RPMI-1640 (Gibco) supplemented with 10% (v:v) FBS, 2 mM L-glutamine, pen/strep and 50 μM 2-mercaptoethanol. Splenocytes were added to quadruplicate wells containing either the T cell mitogen concanavalin A (Con A, Sigma-Aldrich—0. 4 μg/well), the B-cell mitogen LPS (Sigma-Aldrich—1 μg/well) or no mitogen, as well as test compound at a concentration of 10 μM in DMSO. Samples were analysed after a 3 day incubation at 37° C. in 5% CO2 in air. Cell viability was assessed by adding MTT to each well, incubating for a further 4 hrs and then developing colour with 0.04N HCl in isopropanol. Supernatant samples were frozen at −80° C. and IL-6, IFN-γ and TNFα were detected in triplicate using ELISA kits (BD Biosciences).

| SMILES | IC50 (5-LO (LTB4 synthesis)) | synthesis of TNFα (TNFα) | IC50 (A7r5) | TNFα-induced VCAM expression (VCAM-1) | IL-6 production in T cells (IL-6) |
| --- | --- | --- | --- | --- | --- |
| Cc1c(O)ccc2c1OCC(c1cccc(O)c1)=C2 [Cpd. 14, 3′,7-Dihydroxy-8-methylisoflav-3-ene] | < 0.1 µM | inhibited | 33 µM | – | – |
| COc1cccc(C2=Cc3ccc(O)cc3OC2)c1 [Cpd. 16, 7-Hydroxy-3′-methoxyisoflav-3-ene] | 2.2 µM | – | 48 µM | intermediate activity | reduced |
| COc1ccc(C2=Cc3ccc(O)cc3OC2)cc1OC [Cpd. 18, 7-Hydroxy-3′,4′-dimethoxyisoflav-3-ene] | 0.5 µM | inhibited | 74 µM | significantly inhibited | reduced |
| COc1ccc(C2=Cc3ccc(O)c(C)c3OC2)cc1OC [Cpd. 19, 7-Hydroxy-3′,4′-dimethoxy-8-methylisoflav-3-ene] | 0.3 µM | inhibited | – | significantly inhibited | reduced |
| Oc1ccc(C2=Cc3ccc(O)c(Br)c3OC2)cc1 [Cpd. 20, 4′,7-Dihydroxy-8-bromoisoflav-3-ene] | 0.9 µM | – | 33 µM | significantly inhibited | most marked |
